This is an account of results in publication PMC3173180 (The Journal of Biological Chemistry, 2011).

One data set has as its target T1, IbpA-Fic1 (Histophilus somni, UniProt Q06277).
T1 sequence (Q06277 2994-3358): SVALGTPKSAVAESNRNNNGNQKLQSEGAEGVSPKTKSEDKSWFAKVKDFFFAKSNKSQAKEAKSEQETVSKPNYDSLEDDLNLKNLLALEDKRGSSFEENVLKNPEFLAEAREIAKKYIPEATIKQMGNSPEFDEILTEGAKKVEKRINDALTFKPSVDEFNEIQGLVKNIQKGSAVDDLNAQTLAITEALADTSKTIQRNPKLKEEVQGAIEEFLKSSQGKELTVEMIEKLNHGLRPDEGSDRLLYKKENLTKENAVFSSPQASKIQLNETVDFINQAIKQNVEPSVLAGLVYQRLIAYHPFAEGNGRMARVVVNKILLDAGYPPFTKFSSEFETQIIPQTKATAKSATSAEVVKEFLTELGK
Briefly: SDS-PAGE autoradiography of modified Cdc42. The class given is biochemical.

For the next data set, the target named is T2, PfhB2-Fic1 (Pasteurella multocida, UniProt Q9CPH9).
T2 sequence (Q9CPH9 2892-3191): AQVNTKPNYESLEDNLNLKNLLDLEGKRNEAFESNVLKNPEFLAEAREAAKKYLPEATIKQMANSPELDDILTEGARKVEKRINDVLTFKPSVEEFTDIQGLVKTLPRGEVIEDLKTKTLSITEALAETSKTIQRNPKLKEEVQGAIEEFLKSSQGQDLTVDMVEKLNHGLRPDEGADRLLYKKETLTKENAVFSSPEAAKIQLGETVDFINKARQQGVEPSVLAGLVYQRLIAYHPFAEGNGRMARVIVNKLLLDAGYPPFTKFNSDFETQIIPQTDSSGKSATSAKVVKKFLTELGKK
The experiment in a line: SDS-PAGE autoradiography of modified Cdc42. In kind it is biochemical.

The target of another data set is T3, PfhB2-Fic2 (Pasteurella multocida, UniProt Q9CPH9).
T3 sequence (Q9CPH9 3309-3609): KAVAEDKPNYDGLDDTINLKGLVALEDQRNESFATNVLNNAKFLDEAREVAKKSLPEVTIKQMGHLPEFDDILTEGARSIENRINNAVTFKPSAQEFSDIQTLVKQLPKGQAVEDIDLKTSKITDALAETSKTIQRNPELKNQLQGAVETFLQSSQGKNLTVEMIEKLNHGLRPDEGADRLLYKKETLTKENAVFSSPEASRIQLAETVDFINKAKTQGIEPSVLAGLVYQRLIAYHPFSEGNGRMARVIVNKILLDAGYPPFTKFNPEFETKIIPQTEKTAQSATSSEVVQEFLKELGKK
The experiment in a line: SDS-PAGE autoradiography of modified Cdc42. The class given is biochemical.

The next data set addresses T4, HYPE-Fic (Homo sapiens, UniProt Q9BVA6).
T4 sequence (Q9BVA6 181-458): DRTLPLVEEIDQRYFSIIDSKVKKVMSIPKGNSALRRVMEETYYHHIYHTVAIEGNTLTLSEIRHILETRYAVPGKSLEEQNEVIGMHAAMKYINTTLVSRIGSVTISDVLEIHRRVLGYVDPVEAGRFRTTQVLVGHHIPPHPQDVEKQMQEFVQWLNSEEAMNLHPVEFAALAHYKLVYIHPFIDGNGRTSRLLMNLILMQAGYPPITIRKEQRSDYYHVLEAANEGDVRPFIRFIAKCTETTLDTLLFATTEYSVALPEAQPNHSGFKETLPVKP
Briefly: SDS-PAGE autoradiography of modified Cdc42. In kind it is biochemical.

Substrate in the data set “purified protein”: Nc1ncnc2c1ncn2[C@@H]1O[C@H](COP(=O)(O)OP(=O)(O)OP(=O)(O)O)[C@@H](O)[C@H]1O
The experiment in a line: purified protein. The settings on record: pH 7.4; 25.0 °C.

Consider `Nc1ncnc2c1ncn2[C@@H]1O[C@H](COP(=O)(O)OP(=O)(O)OP(=O)(O)O)[C@@H](O)[C@H]1O` [ATP], for which the “SDS-PAGE autoradiography of modified Cdc42” value on IbpA-Fic1 is “ATP was the preferred nucleotide source for all the Fic domains tested”; at PfhB2-Fic1, “ATP was the preferred nucleotide source for all the Fic domains tested”; on PfhB2-Fic2, “ATP was the preferred nucleotide source for all the Fic domains tested”; on HYPE-Fic, “HYPE-Fic efficiently uses ATP, and CTP to a lesser degree, to modify Cdc42”.

B1: IbpA-Fic2 (untagged) (Histophilus somni 2336) (protein)
chain: DETANKVNYQDLEDNLNLKGLISLEDDRNANFESNVLKNEKFLDEAREISKKSIPEATVKQMSHLPEFDDILTEGAKKVESRINKAITFRPSVEEFSEIQDLVKTLPKTKVIEDLSTKTNEITEALAATSKTIQRTPELKEQLKTAIEDFLQNSQGKPLTVQMIENLNHGLRPDEGEGRLLYKKENLTKENAVFSSPEAAKIQLAETVDFINRAKNEGIEPSVVGALVYQRLIAYHPFAEGNGRMARVIVNKILLDAGYPAFTKFSDEFEPQIIPQTKASTKSATSSEVVVEFLKELAKKGSKEDNEQNLEKTDRT
Consider B1, for which, in the data set “purified protein”, the Km stood at 730 ± 40 µM and the kcat is 111 ± 2 s⁻¹.
